By IC50 is commonly meant the concentration at which inhibition is half-maximal.

Results on 28 compounds are retold here after patent US20140187548A1, “6 SUBSTITUTED IMIDAZOPYRAZINES FOR USE AS MPS-1 AND TKK INHIBITORS IN THE TREATMENT OF HYPERPROLIFERATIVE DISORDERS” (BAYER INTELLECTUAL PROPERTY GMBH, priority 2010, published 2014).

This test deals with T1, human kinase Mps-1 (Homo sapiens, UniProt P33981).
T1 construct: N-terminally GST-tagged human full length recombinant Mps-1 kinase; GST (N); purchased Invitrogen, Karslruhe, Germany PV4071
T1 sequence (P33981 1-857): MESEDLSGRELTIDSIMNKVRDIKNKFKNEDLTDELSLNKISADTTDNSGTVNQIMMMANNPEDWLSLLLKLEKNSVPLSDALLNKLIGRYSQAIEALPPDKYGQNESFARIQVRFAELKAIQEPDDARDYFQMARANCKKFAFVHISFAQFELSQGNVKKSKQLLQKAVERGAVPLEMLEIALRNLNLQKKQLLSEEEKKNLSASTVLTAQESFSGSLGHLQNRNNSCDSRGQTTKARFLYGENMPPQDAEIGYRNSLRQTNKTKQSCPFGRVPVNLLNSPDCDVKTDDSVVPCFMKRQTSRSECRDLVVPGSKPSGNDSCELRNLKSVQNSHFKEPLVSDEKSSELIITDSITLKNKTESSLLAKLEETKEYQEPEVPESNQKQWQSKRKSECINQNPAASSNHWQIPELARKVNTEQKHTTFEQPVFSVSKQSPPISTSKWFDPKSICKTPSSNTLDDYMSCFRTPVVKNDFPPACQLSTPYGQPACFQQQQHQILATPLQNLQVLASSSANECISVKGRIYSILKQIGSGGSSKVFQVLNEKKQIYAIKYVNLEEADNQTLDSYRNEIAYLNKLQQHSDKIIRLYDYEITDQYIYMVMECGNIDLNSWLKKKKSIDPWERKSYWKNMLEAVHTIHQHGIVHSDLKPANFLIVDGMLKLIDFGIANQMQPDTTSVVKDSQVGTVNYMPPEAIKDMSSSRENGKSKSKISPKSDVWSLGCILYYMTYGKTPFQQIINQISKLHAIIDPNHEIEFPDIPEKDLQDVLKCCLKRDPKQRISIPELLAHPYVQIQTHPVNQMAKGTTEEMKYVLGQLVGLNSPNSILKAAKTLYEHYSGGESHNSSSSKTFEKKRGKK
Put plainly: Mps-1 kinase assay (TR-FRET). The test is classed as biochemical. The note with it: N-terminally GST-tagged human full length recombinant Mps-1; 10 μM ATP; 1 μM peptide substrate; 15 min pre-incubation; 60 min at 22° C. The method in brief:
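TR-FRET read-out: after 1 h binding at 22° C, Eu-labelled anti-phospho-Ser/Thr antibody transfers to SA-XLent on the phosphorylated biotinylated peptide. The enzyme is GST-tagged full-length human Mps-1, typically about 1 nM final, in the linear range.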
A general note: Time-resolved FRET reads energy transfer from a long-lived donor to a nearby acceptor.
As for `O=C(NC1CC1)c1ccc(-c2cnc3c(NCC4CCCO4)nc(-c4ccc(F)cc4)cn23)cc1Cl` (stereo not shown) [Example 1-103, 2-chloro-N-cyclopropyl-4-{6-(4-fluorophenyl)-8-[(tetrahydrofuran-2-ylmethyl)amino]imidazo [1,2-a]pyrazin-3-yl} benzamide], the IC50 stood at 28.7 nM.

With `CCCc1cn2c(-c3ccc(C(=O)NC4CC4)cc3)cnc2c(NCC(C)C)n1` [Example 11-3, N-cyclopropyl-4-{8-[(2-methylpropyl)amino]-6-propylimidazo [1,2-a]pyrazin-3-yl}benzamide], the IC50 was 5.4 nM.

As for `CC(C)CNc1nc(-c2ccc(C(=O)NC3CC3)c(Cl)c2)cn2c(-c3ccc(C(=O)NC4CC4)cc3)cnc12` [Example 1-83, 2-chloro-N-cyclopropyl-4-{3-[4-(cyclopropyl-carbamoyl)phenyl]-8-[(2-methylpropyl)amino]imidazo[1,2-a]pyrazin-6-yl}benzamide], the IC50 came out at 6.9 nM.

`NCCCNc1nc(-c2ccccc2)cn2c(-c3ccc(C(=O)NC4CC4)cc3)cnc12` [Example 2-68]: the IC50 was 17.4 nM.

As to `C[S+]([O-])CCNc1nc(-c2ccccc2)cn2c(-c3ccc(C(=O)NC4CC4)cc3)cnc12` (stereo not shown) [Example 2-48, N-cyclopropyl-4-(8-{[2-(methylsulfinyl)ethyl]amino}-6-phenylimidazo[1,2-a]pyrazin-3-yl)benzamide], the IC50 turned out to be 3.4 nM.

On to `CC(C)CNc1nc(-c2ccccc2CO)cn2c(-c3ccc(C(=O)NC4CC4)c(Cl)c3)cnc12` [Example 1-95, 2-chloro-N-cyclopropyl-4-{6-[2-(hydroxymethyl)phenyl]-8-[(2-methyl-propyl)amino]imidazo [1,2-a]pyrazin-3-yl} benzamide], for which the IC50 worked out at 5.3 nM.

As to `CC(C)CNc1nc(-c2cccc(C(N)=O)c2)cn2c(-c3ccc(C(=O)NC4CC4)cc3)cnc12` [Example 1-25, 4-{6-(3-carbamoylphenyl)-8-[(2-methylpropyl)amino]imidazo[1,2-a]pyrazin-3-yl}-N-cyclo-propylbenzamide], the IC50 was 1.2 nM.

As to `COC(=O)c1cccc(-c2cn3c(-c4ccc(C(=O)NC5CC5)cc4)cnc3c(NCC(C)C)n2)c1` [Example 1-11, methyl 3-{3-[4-(cyclopropyl-carbamoyl)phenyl]-8-[(2-methylpropyl)amino]imidazo[1,2-a]pyrazin-6-yl}benzoate], the IC50 was 2.3 nM.

Consider `COc1cc(OC)cc(-c2cn3c(-c4ccc(C(=O)NC5CC5)cc4)cnc3c(NCC(C)C)n2)c1` [Example 1-21, N-cyclopropyl-4-{6-(3,5-dimethoxyphenyl)-8-[(2-methylpropyl)amino]imidazo[1,2-a]pyrazin-3-yl}benzamide], for which the half-inhibitory concentration (IC50) was determined as 19 nM.

Regarding `CC(C)CNc1nc(-c2ccc(N(C)C)cc2)cn2c(-c3ccc(C(=O)NC4CC4)c(F)c3)cnc12` [Example 1-110, N-cyclopropyl-4-{6-[4-(dimethylamino)phenyl]-8-[(2-methylpropyl)amino]imidazo[1,2-a]pyrazin-3-yl}-2-fluoro-benzamide], the half-inhibitory concentration (IC50) came to 12.6 nM.

`CC(C)CNc1nc(-c2ccc([N+](=O)[O-])cc2)cn2c(-c3ccc(C(=O)NC4CC4)cc3)cnc12` [Example 1-61, N-cyclopropyl-4-{8-[(2-methylpropyl)amino]-6-(4-nitrophenyl)imidazo [1,2-a]pyrazin-3-yl} benzamide]: the IC50 amounted to 2 nM.

As for `CC(C)CNc1nc(-c2ccc(C(=O)NC3CC3)cc2)cn2c(-c3ccc(C(=O)NC4CC4)cc3)cnc12` [Example 1-30, 4,4′-{8-[(2-methylpropyl)amino]imidazo[1,2-a]pyrazine-3,6-diyl}bis (N-cyclopropylbenzamide)], the IC50 came out at 1.5 nM.

As to `O=C(NC1CC1)c1ccc(-c2cnc3c(NCCc4ccccn4)nc(-c4ccccc4)cn23)cc1` [Example 2-24, N-cyclopropyl-4-(6-phenyl-8-{[2-(pyridin-2-yl)ethyl]amino}imidazo[1,2-a]pyrazin-3-yl) benzamide], the IC50 was determined as 10.3 nM.

As for `O=C(NC1CC1)c1ccc(-c2cnc3c(NCCOc4ccccc4)nc(-c4ccccc4)cn23)cc1` [Example 2-40, N-cyclopropyl-4-{8-[(2-phenoxyethyl)amino]-6-phenylimidazo[1,2-a]pyrazin-3-yl}benzamide], the IC50 stood at 9.8 nM.

Turning to `CC(C)CNc1nc(-c2cccc(OC(C)C)c2)cn2c(-c3ccc(C(=O)NC4CC4)cc3)cnc12` [Example 1-29, N-cyclopropyl-4-{8-[(2-methylpropyl)amino]-6-[3-(propan-2-yloxy)phenyl]imidazo[1,2-a]pyrazin-3-yl}benzamide], the IC50 is 15.1 nM.

As for `CC(C)CNc1nc(-c2cccc(C(=O)Nc3ccccc3)c2)cn2c(-c3ccc(C(=O)NC4CC4)cc3)cnc12` [Example 1-57, 3-{3-[4-(cyclopropyl-carbamoyl)phenyl]-8-[(2-methylpropyl)amino]imidazo[1,2-a]pyrazin-6-yl}-N-phenylbenzamide], the IC50 is 10.4 nM.

On to `CC(C)CNc1nc(-c2ccccc2Oc2ccccc2)cn2c(-c3ccc(C(=O)NC4CC4)cc3)cnc12` [Example 1-64, N-cyclopropyl-4-{8-[(2-methylpropyl)amino]-6-(2-phenoxyphenyl)imidazo[1,2-a]pyrazin-3-yl}benzamide], for which the IC50 turned out to be 74.3 nM.

In the case of `CN(C)c1ccc(-c2cn3c(-c4ccc(C(=O)NC5CC5)c(Cl)c4)cnc3c(NCCC(F)(F)F)n2)cc1` [Example 1-96, 2-chloro-N-cyclopropyl-4-{6-[4-(dimethylamino)phenyl]-8-[(3,3,3-trifluoropropyl)amino]imidazo[1,2-a]pyrazin-3-yl}benzamide], the IC50 came out at 22.6 nM.

Regarding `NC(=O)CNc1nc(-c2ccccc2)cn2c(-c3ccc(C(=O)NC4CC4)cc3)cnc12` [Example 2-30, 4-{8-[(2-amino-2-oxoethyl)amino]-6-phenylimidazo[1,2-a]pyrazin-3-yl}-N-cyclopropyl-benzamide], the IC50 is 19 nM.

On to `CC(C)CNc1nc(-c2ccc(C#N)cc2)cn2c(-c3ccc(C(=O)NC4CC4)cc3)cnc12` [Example 1-73, 4-{6-(4-cyanophenyl)-8-[(2-methylpropyl)amino]imidazo[1,2-a]pyrazin-3-yl}-N-cyclo-propylbenzamide], for which the IC50 worked out at 2.1 nM.

Take `CSc1ccccc1-c1cn2c(-c3ccc(C(=O)NC4CC4)cc3)cnc2c(NCC(C)C)n1` [Example 1-70, N-cyclopropyl-4-{8-[(2-methylpropyl)amino]-6-[2-(methylsulfanyl)phenyl]imidazo[1,2-a]pyrazin-3-yl}benzamide]: the IC50 worked out at 3.2 nM.

For the compound `CC(C)CNc1nc(-c2ccccc2CO)cn2c(-c3ccc(C(=O)NC4CC4)c(F)c3)cnc12` [Example 1-111, N-cyclopropyl-2-fluoro-4-{6-[2-(hydroxymethyl)phenyl]-8-[(2-methyl-propyl)amino]imidazo [1,2-a]pyrazin-3-yl} benzamide], the IC50 was determined as 3 nM.

In the case of `CC(C)CNc1nc(-c2ccc(OC(F)(F)F)cc2)cn2c(-c3ccc(C(=O)NC4CC4)cc3)cnc12` [Example 1-52, N-cyclopropyl-4-{8-[(2-methylpropyl)amino]-6-[4-(trifluoromethoxy)phenyl]imidazo[1,2-a]pyrazin-3-yl}benzamide], the IC50 is 31.4 nM.

Take `Cc1cc(-c2cnc3c(NCCC(C)CO)nc(-c4ccc(F)cc4)cn23)ccc1C(=O)NC1CC1` (stereo not shown) [Example 10-5, N-cyclopropyl-4-{6-(4-fluorophenyl)-8-[(4-hydroxy-3-methylbutyl)amino]imidazo[1,2-a]pyrazin-3-yl}-2-methyl-benzamide]: the IC50 came to 4.8 nM.

For `CC(C)CNc1nc(-c2ccccc2)c(F)n2c(-c3ccc(C(=O)NC4CC4)cc3)cnc12` [Example 5-1, N-cyclopropyl-4-{5-fluoro-8-[(2-methylpropyl)amino]-6-phenylimidazo[1,2-a]pyrazin-3-yl}benzamide], the IC50 is 67 nM.

As for `CC(C)CNc1nc(-c2cccc3ccccc23)cn2c(-c3ccc(C(=O)NC4CC4)cc3)cnc12` [Example 1-4, N-cyclopropyl-4-{8-[(2-methylpropyl)amino]-6-(naphthalen-1-yl)imidazo[1,2-a]pyrazin-3-yl}benzamide], the IC50 came out at 4.6 nM.

In the case of `O=C(NC1CC1)c1ccc(-c2cnc3c(NCC4CCC4)nc(-c4ccccc4)cn23)cc1` [Example 2-73, 4-{8-[(Cyclobutylmethyl)amino]-6-phenylimidazo[1,2-a]pyrazin-3-yl}-N-cyclopropylbenzamide], the half-inhibitory concentration (IC50) stood at 2.3 nM.

As to `CC(C)CNc1nc(-c2ccc3ncccc3c2)cn2c(-c3ccc(C(=O)NC4CC4)cc3)cnc12` [Example 1-76, N-cyclopropyl-4-{8-[(2-methylpropyl)amino]-6-(quinolin-6-yl)imidazo [1,2-a]pyrazin-3-yl} benzamide], the IC50 turned out to be 3.3 nM.
